From PubChem BioAssay (NCI)
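Step 1: Grow cells in 96-well plates. Step 2: Expose to compound for 48 hours at 5 concentrations. Step 3: Interpolate endpoints linearly; if unreached, use highest concentration. At the TGI there is no net growth.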 Where a SMILES comes first, the peptide text is derived from it. The star is where a group is joined. Cbz = O=C(OCc1ccccc1)*

Legend:
Test in all cases: inhibition of tumour cell growth, NCI panel, 48 h
HL-60(TB) leukemia = system: HL-60(TB) leukemia
TK-10 renal = system: TK-10 renal
SNB-75 CNS = system: SNB-75 CNS
MDA-MB-435 = system: MDA-MB-435
SN12C renal = system: SN12C renal
OVCAR-4 ovarian = system: OVCAR-4 ovarian
K-562 leukemia = system: K-562 leukemia
M14 melanoma = system: M14 melanoma
SK-MEL-2 melanoma = system: SK-MEL-2 melanoma
NCI-H23 lung = system: NCI-H23 lung
SK-MEL-28 melanoma = system: SK-MEL-28 melanoma
HCT-15 colon = system: HCT-15 colon
RPMI-8226 leukemia = system: RPMI-8226 leukemia
MDA-MB-231 breast = system: MDA-MB-231 breast

| Structure (SMILES) | TGI (HL-60(TB) leukemia) [µM] | TGI (TK-10 renal) [µM] | TGI (SNB-75 CNS) [µM] | TGI (MDA-MB-435) [µM] | TGI (SN12C renal) [µM] | TGI (OVCAR-4 ovarian) [µM] | TGI (K-562 leukemia) [µM] | TGI (M14 melanoma) [µM] | TGI (SK-MEL-2 melanoma) [µM] | TGI (NCI-H23 lung) [µM] | TGI (SK-MEL-28 melanoma) [µM] | TGI (HCT-15 colon) [µM] | TGI (RPMI-8226 leukemia) [µM] | TGI (MDA-MB-231 breast) [µM] |
| --- | --- | --- | --- | --- | --- | --- | --- | --- | --- | --- | --- | --- | --- | --- |
| CC(C)(C)/C(O)=C\c1nc2cc(C(F)(F)F)ccc2[nH]c1=O | 19.8 | > 100 | > 100 | > 100 | > 100 | > 100 | > 100 | > 100 | > 100 | > 100 | > 100 | > 100 | > 100 | > 100 |
| CC(=O)c1cn(-c2ccc(Cl)cc2)c(=O)c2c(N)n[nH]c12 | > 100 | > 100 | > 100 | > 100 |  | > 100 | > 100 |  | > 100 | > 100 | > 100 | > 100 | > 100 | > 100 |
| O=C1OC(CN2CCN(c3ccccc3)CC2)CN1C(=S)Nc1ccccc1 (centres undefined) | > 100 | > 100 | > 100 | > 100 | > 100 | > 100 | > 100 | > 100 | > 100 | > 100 | > 100 | > 100 | > 100 | > 100 |
| CC(C)(C)OC(=O)NC(Cc1ccc([N+](=O)[O-])cc1)C(=O)NC(CCCCNC(=O)OCc1ccccc1)C(=O)ON1C(=O)CCC1=O (centres undefined) | > 100 | > 100 | > 100 | > 100 | > 100 | > 100 | 73.1 | > 100 |  | > 100 | > 100 | > 100 | > 100 | > 100 |
| CC(C)[Si](OC1=CCCCCC12C(=O)N(C)c1ccccc12)(C(C)C)C(C)C (centres undefined) | 38.9 | 80.9 | 40.4 | 67.3 |  | > 100 | > 100 | 49.2 | 37.6 | 46.1 | 60.4 | 33.8 | 36.5 | 54.8 |
| CC1OC(=O)c2ccccc2NC1=O (centres undefined) | > 100 | > 100 | > 100 | > 100 | > 100 | > 100 | > 100 | > 100 | > 100 | > 100 | > 100 | > 100 | > 100 | > 100 |
| CC(=O)OC[C@@]12C[C@H]3C(=O)C(C)(C)C[C@H]3[C@]1(C)[C@@H](OC(C)=O)[C@]1(O)[C@H]([C@@H](OC(=O)c3ccccc3)[C@@H](C)[C@H]1OC(C)=O)[C@H]2OC(C)=O | > 20 | > 20 | > 20 | > 20 | > 20 | > 20 | > 20 | > 20 | > 20 | > 20 |  | > 20 |  | > 20 |
| CN1CCN(c2ccc3[nH]c(C4=C(O)c5nc(CO)n(C)c5C(=O)C4=O)nc3n2)CC1 | > 100 |  | > 100 | > 100 | > 100 | > 100 | > 100 | > 100 | > 100 | > 100 | > 100 | > 100 | > 100 | > 100 |
| CCOC(=O)c1nc2cc(C(F)(F)F)ccc2nc1Nc1ccc(Cl)c(Cl)c1 | > 100 | > 100 | > 100 | > 100 | > 100 | > 100 |  | > 100 | > 100 | > 100 | > 100 | > 100 | > 100 | > 100 |
| O=C(O)CCC1(c2ccccc2)NC(=O)NC1=O (centres undefined) | > 100 | > 100 | > 100 | > 100 | > 100 | > 100 | > 100 | > 100 | > 100 | > 100 | > 100 | > 100 | > 100 | > 100 |
| CC(Cc1ccc(O)c(O)c1)C(C)Cc1ccc(O)c(O)c1 (centres undefined) | 10.3 | > 87.7 | 61.7 | 28.3 | > 51.6 | 29.5 | > 62.7 | 34 | 42.9 | 46.6 | 31.1 | > 60.8 | > 63.8 | > 57 |
| N#Cc1c(NC(=S)NCc2ccccc2)sc2c1CCN(N1CCc3c(sc(NC(=S)NCc4ccccc4)c3C#N)C1)C2 | > 100 | > 100 | > 100 | > 100 | > 100 | > 100 | > 100 | > 100 | > 100 | > 100 | > 100 | > 100 |  | > 100 |
| O=C(O)c1ccccc1/C=N\NC1=NCCN1 | > 100 | > 100 | > 100 | > 100 | > 100 | > 100 | > 100 | > 100 | > 100 | > 100 |  | > 100 | > 100 | > 100 |
| NC(CCCCNc1ccn(C2OC(CO)C(O)C2O)c(=O)n1)C(=O)O (centres undefined) | > 100 | > 100 | > 100 | > 100 | > 100 | > 100 | > 100 | > 100 | > 100 |  | > 100 | > 100 | > 100 | > 100 |
| Fc1ccc(C(OCCN2CCC3CCC(C2)N3Cc2cc3ccccc3[nH]2)c2ccc(F)cc2)cc1 (centres undefined) | 3.69 | 5.38 | 3.97 | 3.55 | 3.05 | 5.68 |  | 2.94 | 3.16 | 3.05 | 3.04 | 2.38 | 3.42 | 3.22 |
| CCOC(=O)C(C)NC(=O)C(C)NC(=O)C(C)NC(=O)C(C)NC(=O)C(C)NC(=O)C(C)NC(=O)C(C)NC(=O)OCc1ccccc1 (centres undefined) (Cbz-AAAAAAA-OEt; configuration not given here) | > 100 | > 100 | > 100 | > 100 | > 100 | > 100 | > 100 | > 100 |  | > 100 | > 100 | > 100 | > 100 | > 100 |
| Nc1c(C(=O)c2ccccc2)[nH]c(NCc2ccccc2)c1C(=S)Nc1ccccc1 | > 100 | > 100 | > 100 | > 100 | > 100 | > 100 | > 100 | > 100 | > 100 | > 100 | > 100 | > 100 |  | > 100 |
